Results as given in patent publication US20260158102A1, “CYCLIC PEPTIDE DERIVATIVE COMPOSITION FOR TREATING OR PREVENTING NEUROPATHIC PAIN AND/OR INFLAMMATORY PAIN” (DKS Co. Ltd., priority 2022, published 2026).

Test: Observation of general condition in rat STZ-induced diabetes model
Format: in vivo
Conditions: number of animals, 10 per group
Procedure: Compound 9 (50 mg/mL) was diluted with water for injection to obtain a 1 mg/mL administration specimen. For the specimens to be administered at 0.1 mg/mL and 0.01 mg/mL, the specimen to be administered at 1 mg/mL was diluted stepwise with water for injection. Each administration specimen was divided into PP disposable tubes every day and stored in a storehouse (freezer: MDF-MU339H-PJ, PHC Corporation) under the condition of freezing (−30° C. to −20° C., measured value: −26.4 to −24.5° C.). Preparation was performed on the day before the start of administration.
Water for injection was added to and dissolved in Pregabalin taken out from the capsule to obtain 2 mg/mL. It was prepared before use.
• Animal species: rat (SPF) • Strain: Crl: CD (SD) • Date of animal acquisition, gender, age in weeks, number of animals acquired, and weight range after 1 day of acquisition • First and second courses: Apr. 6, 2022, male, 7 weeks old, 35 animals, 217 to 237 g • Third and fourth courses: Apr. 13, 2022, male, 7 weeks old, 35 animals, 216 to 235 g • Source: […].
• Dose volume: calculated at 2 mL/kg based on the body weight on the day of administration. • Number of times of administration: once • Day of administration: 7 days before the day of starting administration of the test substance.
• Dose volume: calculated at 1 mL/kg based on the body weight on the day of administration. • Number of times of administration: 9 times • Interval of administration: once every 3 days (evaluation was performed on the day after administration) • Day of starting administration: day 8 of STZ administration (day of STZ administration is counted as day 1).
• Dose volume: calculated at 10 mL/kg based on the body weight on the day of administration. • Number of times of administration: Administration was performed once on the day of evaluation of neuropathic pain, twice in total, and on the other days of administration, a vehicle for a control substance (water for injection) was orally administered.
• Observation of general condition • Observation was performed once a day.

Measured: general condition

CC[C@@]1(C)Oc2cc(ccc2O)C[C@H](NC)C(=O)N[C@@H](C(C)C)C(=O)N[C@@H]1C(=O)N[C@@H](CC(=O)O)C(=O)O [Compound 9]
10: 0.1 mg/kg iv, day 9 of STZ administration | 0.1 mg/kg iv, day 10 of STZ administration | 0.1 mg/kg iv, day 11 of STZ administration | 0.1 mg/kg iv, day 12 of STZ administration | 0.1 mg/kg iv, day 13 of STZ administration | 0.1 mg/kg iv, day 14 of STZ administration | 0.1 mg/kg iv, day 15 of STZ administration | 0.1 mg/kg iv, day 16 of STZ administration | 0.1 mg/kg iv, day 17 of STZ administration | 0.1 mg/kg iv, day 18 of STZ administration | 0.1 mg/kg iv, day 19 of STZ administration | 0.1 mg/kg iv, day 20 of STZ administration | 0.1 mg/kg iv, day 21 of STZ administration | 0.1 mg/kg iv, day 22 of STZ administration | 0.1 mg/kg iv, day 23 of STZ administration | 0.1 mg/kg iv, day 24 of STZ administration | 0.1 mg/kg iv, day 25 of STZ administration | 0.1 mg/kg iv, day 26 of STZ administration | 0.1 mg/kg iv, day 27 of STZ administration | 0.1 mg/kg iv, day 28 of STZ administration | 0.1 mg/kg iv, day 29 of STZ administration | 0.1 mg/kg iv, day 30 of STZ administration | 0.1 mg/kg iv, day 31 of STZ administration | 0.1 mg/kg iv, day 32 of STZ administration | 0.1 mg/kg iv, day 33 of STZ administration | 0.1 mg/kg iv, day 34 of STZ administration | 0.1 mg/kg iv, day 35 of STZ administration | 1 mg/kg iv, day 1 of STZ administration | 1 mg/kg iv, day 2 of STZ administration | 1 mg/kg iv, day 3 of STZ administration | 1 mg/kg iv, day 4 of STZ administration | 1 mg/kg iv, day 5 of STZ administration | 1 mg/kg iv, day 6 of STZ administration | 1 mg/kg iv, day 7 of STZ administration | 1 mg/kg iv, day 8 of STZ administration | 1 mg/kg iv, day 9 of STZ administration | 1 mg/kg iv, day 10 of STZ administration | 1 mg/kg iv, day 11 of STZ administration | 1 mg/kg iv, day 12 of STZ administration | 1 mg/kg iv, day 13 of STZ administration | 1 mg/kg iv, day 14 of STZ administration | 1 mg/kg iv, day 15 of STZ administration | 1 mg/kg iv, day 16 of STZ administration | 1 mg/kg iv, day 17 of STZ administration | 1 mg/kg iv, day 18 of STZ administration | 1 mg/kg iv, day 19 of STZ administration | 1 mg/kg iv, day 20 of STZ administration | 1 mg/kg iv, day 21 of STZ administration | 1 mg/kg iv, day 22 of STZ administration | 1 mg/kg iv, day 28 of STZ administration | 1 mg/kg iv, day 29 of STZ administration | 1 mg/kg iv, day 30 of STZ administration | 1 mg/kg iv, day 31 of STZ administration | 1 mg/kg iv, day 32 of STZ administration | 1 mg/kg iv, day 33 of STZ administration | 1 mg/kg iv, day 34 of STZ administration | 1 mg/kg iv, day 35 of STZ administration
